Experimental data: patent US20080045463A1, “Methods For Lowering Hif-1 Mediated Gene Expression” (priority 2004, published 2008)

Tested on: HIF-1α
Assay: Nuclear HIF-1α accumulation in human cancer cell lines (western blot)
Assay type: cell-based
Conditions: for HIF-1α accumulation induced by metabolite: substituted for glucose in Krebs buffer, normoxia; for dose inducing HIF-1α (doses as low as): culture times longer than 8 h; for threshold dose for inducing HIF-1α accumulation: four hours period of cell culture
Description: Human U87, U251, U251-HRE (20) and U373 glioma cells were cultured in Eagle's MEM medium (Mediatech). […] 22B Human head and neck cancer cells were cultured in high glucose DMEM (Gibco) containing 2 mM glutamine. C6 ODD-GFP rat glioma cells were cultured in high glucose DMEM with 1.5 mg/ml G418. All culture media were supplemented with 10% fetal bovine serum and 1% (v/v) penicillin/streptomycin. Rat C6 glioma cells were cultured in high glucose DMEM. For cell hypoxia treatment, the culture dishes were sealed in a modular incubator chamber, flushed with gas containing 1% O2, 5% CO2 and 94% N2 for 5 minutes, and incubated in this environment at 37° C. for indicated times.
Protein extraction, western blot analysis, and immunocytochemistry were performed as previously described. […] Mouse monoclonal anti-β-actin antibody was ab6276-100 (Abcam). Dimethyloxalylglycine was D1070 (Frontier Scientific). All other chemicals were from Sigma.

Structure (SMILES) | HIF-1α accumulation induced by metabolite (four hours) | also measured
O=C(O)CC(O)C(=O)O (centres unmarked) [malate] | unable to induce HIF-1α accumulation | –
CC(O)CC(=O)O (stereo not drawn) [β-hydroxybutyrate] | unable to induce HIF-1α accumulation | –
CC(=O)CC(=O)O [acetoacetate] | unable to induce HIF-1α accumulation | –
O=C(O)CC(=O)C(=O)O [oxaloacetate] | – | dose inducing HIF-1α (doses as low as): 100 µM; threshold dose for inducing HIF-1α accumulation: about 300 μM
OO [H2O2] | – | HIF-1α accumulation induced by oxidant (U251 cells, four hours): induce HIF-1α accumulation
N[C@@H](CSSC[C@H](N)C(=O)O)C(=O)O [cystine] | – | inhibition of HIF-1α accumulation, L- vs D-isomers and dimer (U87, four hours, glucose-free Krebs, 1 mM pyruvate or oxaloacetate, 250 μM (FIG. 3C)): effective
C[C@H](N)C(=O)O [alanine] | unable to induce HIF-1α accumulation | –
CC[C@H](C)C(=O)C(=O)O [α-keto-β-methylvalerate] | active in some but not all cell lines | –
CC(C)CC(=O)C(=O)O [α-ketoisocaproate] | active in some but not all cell lines | –
O=C(O)CCCC(=O)C(=O)O [α-ketoadipate] | did not induce HIF-1α accumulation | –
O=C(O)C(=O)CF [fluoropyruvate] | not able to induce HIF-1α accumulation | –
CCC(=O)C(=O)O [α-ketobutyrate] | did not induce HIF-1α accumulation | –
NC(=O)CC[C@H](N)C(=O)O [glutamine] | – | basal HIF-1α accumulation (U251 cells switched to Krebs buffer for 4 hours, 10 mM glutamine): no basal HIF-1α accumulation
CC(=O)C(=O)O [pyruvate] | – | dose inducing HIF-1α (doses as low as): 100 µM; threshold dose for inducing HIF-1α accumulation: about 300 μM
CC(=O)C=O [pyruvaldehyde] | unable to induce HIF-1α accumulation | –
CCOC(=O)C(C)=O [ethyl esters of pyruvate, ethyl-pyruvate] | effective | –
CC(C)C(=O)C(=O)O [α-ketoisovalerate] | minor activity | –
O=C(O)C(=O)C(=O)O [ketomalonate] | did not induce HIF-1α accumulation | –
